Experimental data published in patent US6521623B1, “N,N'-disubstituted benzimidazolone derivatives with affinity at the serotonin and dopamine receptors” (Boehringer Ingelheim Pharma KG, priority 2000, dated 2003).

Tests used:
[1] = target: T1, 5-HT1A (Homo sapiens, UniProt P08908); experiment: 5HT1A Radioligand Receptor Binding Assay ([3H]-8-OH-DPAT, CHO cell membranes); parameters: expressed in transfected cells; host or cells: CHO cells; settings: CHO membranes, human 5-HT1A; for 5-HT1A Receptor Binding Assay % inhibition (10^−7 M) / inhibition at 0.1 µM: compound 10^−7 M, singlicate, [3H]-8-OH-DPAT 0.6-0.7 nM; for IC50: [3H]-8-OH-DPAT, read-out: 5-HT1A Receptor Binding IC50
T1 sequence (P08908 1-422): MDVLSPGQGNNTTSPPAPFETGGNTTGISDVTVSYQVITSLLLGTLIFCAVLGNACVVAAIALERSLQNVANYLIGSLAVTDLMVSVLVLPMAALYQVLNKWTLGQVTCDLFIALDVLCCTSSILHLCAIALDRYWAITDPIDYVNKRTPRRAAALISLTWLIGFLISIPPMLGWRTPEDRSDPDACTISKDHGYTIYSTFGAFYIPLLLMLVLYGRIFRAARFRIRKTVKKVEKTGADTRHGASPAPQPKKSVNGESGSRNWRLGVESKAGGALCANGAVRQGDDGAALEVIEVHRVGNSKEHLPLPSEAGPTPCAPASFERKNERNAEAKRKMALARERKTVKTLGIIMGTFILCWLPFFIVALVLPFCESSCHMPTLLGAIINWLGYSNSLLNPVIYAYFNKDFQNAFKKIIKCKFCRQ
Protocol: 5HT1A Radioligand Receptor Binding Assay
Membranes from CHO cells, expressing 5-HT1A human receptors were suspended in incubation buffer.
Binding assays were performed in MultiProbe 204 pipetting system (Packard), according to a predetermined mapping, consistent with the software Screen. The compounds were tested in singlicate at one concentration (10^−7 M) in a total volume of 1000 μl. 980 μl of diluted membranes, 10 μl DMSO or unlabelled ligand and 10 μl of [^3H]-8-OH-DPAT (0.6-0.7 nM) were incubated for 60 minutes at 27° C. The reaction was stopped by rapid filtration through Tomtec Cell Harvester (48 wells) using Filtermat B (presoaked in 0.1% PEI) filters. Filters were washed with ice-cold 50 mM Tris-HCl (pH 7.4) buffer (9×700 μl), dried, covered with MeltiLex B/HS scintillator sheets (Wallac) and heated at 80° C. to 90° C. for about 10 minutes, transferred into plastic sample bags (Wallac), sealed, and put into 1024 Beta Plate scintillation counter (Wallac). Non-specific binding was determined in the presence of 5-HT (10^−5 M).
The specific radioligand binding to the receptor was defined by the difference between total binding and non-specific binding, determined in the presence of an excess of unlabelled ligand. Results were expressed as percentage of control specific binding obtained in the presence of the compounds. The affinity values (IC50) for the compounds were obtained by a nonlinear least squares regression analysis on the basis of a one binding site model.

[2] = target: T2, D4 human receptors (Homo sapiens, UniProt P21917); experiment: D4 Radioligand Receptor Binding Assay ([3H] YM-09151-2, CHO cell membranes); settings: compound 10^−7 M, singlicate, [3H] YM-09151-2 0.15-0.25 nM
T2 construct: expressed in transfected cells; host or cells: CHO cells
T2 sequence (P21917 1-419): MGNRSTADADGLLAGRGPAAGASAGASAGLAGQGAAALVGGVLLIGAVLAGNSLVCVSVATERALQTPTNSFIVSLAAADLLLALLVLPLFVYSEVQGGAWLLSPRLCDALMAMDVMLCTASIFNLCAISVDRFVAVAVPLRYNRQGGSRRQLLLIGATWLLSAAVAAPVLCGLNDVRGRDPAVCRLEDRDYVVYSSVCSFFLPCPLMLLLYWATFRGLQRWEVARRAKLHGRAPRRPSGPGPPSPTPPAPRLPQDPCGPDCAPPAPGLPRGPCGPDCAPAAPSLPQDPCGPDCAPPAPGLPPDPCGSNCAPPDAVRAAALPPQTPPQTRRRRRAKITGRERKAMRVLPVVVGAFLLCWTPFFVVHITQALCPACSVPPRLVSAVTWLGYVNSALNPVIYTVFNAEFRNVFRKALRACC
Protocol: D4 Radioligand Receptor Binding Assay
Membranes from CHO cells expressing D4 human receptors, were suspended in incubation buffer.
Binding assays were performed in MultiProbe 204 pipetting system (Packard), according to a predetermined mapping, consistent with the software Screen. The compounds were tested in singlicate at one concentration (10^−7 M) in a total volume of 1000 μl (980 μl of diluted membranes, 10 μl DMSO or unlabelled ligand and 10 μl of [^3H] YM-09151-2 (0.15-0.25 nM). After incubation for 120 minutes at 27° C., the reaction was stopped by rapid filtration through Tomtec Cell Harvester (48 wells) using Filtermat B (presoaked in 0.1% PEI) filters. Filters were washed with ice-cold 50 mM Tris-HCl (pH 7.4) buffer (9×700 μl), dried, covered with MeltiLex B/HS (Wallac) scintillator sheets and heated in oven at 80° C. to 90° C. for about 10 minutes, transferred into plastic sample bags (Wallac), sealed, and put into 1024 Beta Plate scintillation counter (Wallac). Non-specific binding was determined in the presence of clozapine dissolved in DMSO to a final concentration of 10^−5 M.
The specific radioligand binding to the receptor was defined by the difference between total binding and non-specific binding, determined in the presence of an excess of unlabelled ligand. Results were expressed as percentage of control specific binding obtained in the presence of the compounds.

Structure (SMILES) | 5-HT1A Receptor Binding Assay % inhibition (10^−7 M) [1] [%] | D4 Receptor Binding Assay % inhibition (10^−7 M) [2] [%] | IC50 [1] [nM] | inhibition at 0.1 µM [1] [%] | inhibition at 0.1 µM [2] [%]
COc1ccccc1N1CCN(CCCCn2c(=O)n(CCO)c3ccccc32)CC1 [Compound 74] | 92 | 62 |  |  | 
CCNC(=O)OCCn1c(=O)n(CCCCN2CCN(c3ccccc3)CC2)c2ccccc21 [Compound 75] | 67 | 54 |  |  | 
CCNC(=O)OCCn1c(=O)n(CCCCN2CCN(c3ccccn3)CC2)c2ccccc21 [Compound 78] | 69 | 44 |  |  | 
CCNC(=O)OCCn1c(=O)n(CCCCN2CCN(c3cccc(Cl)c3)CC2)c2ccccc21 [Compound 79] | 86 | 58 |  |  | 
CCNC(=O)OCCn1c(=O)n(CCCCN2CC=C(c3ccccc3)CC2)c2ccccc21 [Compound 84] | 52 | 42 |  |  | 
CCNC(=O)OCCn1c(=O)n(CCCCN2CCN(c3ccc(Cl)c(Cl)c3)CC2)c2ccccc21 [Compound 85] | 77 | 79 |  |  | 
CCNC(=O)OCCn1c(=O)n(CCCCN2CCN(c3cccc(C)c3C)CC2)c2ccccc21 [Compound 92] | 94 | 55 |  |  | 
CCNC(=O)OCCn1c(=O)n(CCCCN2CCN(c3ccccc3OC)CC2)c2ccccc21 [Compound 93] | 94 | 62 |  |  | 
CCNC(=O)OCCn1c(=O)n(CCCCN2CCN(c3cccc(C)c3)CC2)c2ccccc21 [Compound 94] | 88 | 72 |  |  | 
CCNC(=O)OCCn1c(=O)n(CCCCN2CCN(c3ccccc3C)CC2)c2ccccc21 [Compound 95] | 85 | 64 |  |  | 
CCNC(=O)OCCn1c(=O)n(CCCCN2CCN(c3ccccc3Cl)CC2)c2ccccc21 [Compound 96] | 92 | 72 |  |  | 
CC(=O)NCCn1c(=O)n(CCCCN2CCN(c3ccc(Cl)c(Cl)c3)CC2)c2ccccc21 [Compound 107] | 55 | 58 |  |  | 
CC(=O)NCCn1c(=O)n(CCCCN2CCN(c3ccccc3Cl)CC2)c2ccccc21 [Compound 118] | 80 | 36 |  |  | 
O=c1n(CCN2CCCCC2)c2ccccc2n1CCN1CCN(c2cccc(Cl)c2)CC1 [Compound 145] | 85 | 42 |  |  | 
O=c1n(CCN2CCCCC2)c2ccccc2n1CCN1CCN(c2cccc(C(F)(F)F)c2)CC1 [Compound 149] | 88 | 35 |  |  | 
O=c1n(CCN2CC=C(c3ccccc3)CC2)c2ccccc2n1CCN1CCCCC1 [Compound 150] | 57 | 52 |  |  | 
COc1ccccc1N1CCN(CCn2c(=O)n(CCN3CCCCC3)c3ccccc32)CC1 [Compound 159] | 85 | 50 |  |  | 
COCCn1c(=O)n(CCN2CC=C(c3ccccc3)CC2)c2ccccc21 [Compound 169] | 85 | 58 |  |  | 

Structure (SMILES) | 5-HT1A Receptor Binding Assay % inhibition (10^−7 M) [1] [%] | D4 Receptor Binding Assay % inhibition (10^−7 M) [2] [%] | IC50 [1] [nM] | inhibition at 0.1 µM [1] [%] | inhibition at 0.1 µM [2] [%]
O=c1n(CCO)c2ccccc2n1CCN1CCN(c2ccccn2)CC1 [Compound 182] | 62 | 45 |  |  | 
O=c1n(CCO)c2ccccc2n1CCN1CC=C(c2ccccc2)CC1 [Compound 188] | 78 | 78 |  |  | 
O=c1n(CCO)c2ccccc2n1CCN1CCN(c2ccc(Cl)c(Cl)c2)CC1 [Compound 189] | 54 | 99 |  |  | 
COc1ccccc1N1CCN(CCn2c(=O)n(CCO)c3ccccc32)CC1 [Compound 197] | 77 | 43 |  |  | 
CCNC(=O)OCCn1c(=O)n(CCN2CCN(c3ccccc3OC)CC2)c2ccccc21 [Compound 216] | 92 | 44 |  |  | 
O=c1n(C/C=C\CN2CCN(c3cccc(Cl)c3)CC2)c2ccccc2n1CCN1CCOCC1 [Compound 263] |  |  | 8.8 | 92 | 42
COCCn1c(=O)n(C/C=C/CN2CCN(c3cccc(Cl)c3)CC2)c2ccccc21 [Compound 297] |  |  | 7.9 | 96 | 34
O=c1n(C/C=C\CN2CCc3c([nH]c4ccccc34)C2)c2ccccc2n1CCN1CCCCC1 [Compound 316] | 72 | 94 |  |  | 
O=c1n(C/C=C\CN2CC=C(c3ccccc3)CC2)c2ccccc2n1CCN1CCCCC1 [Compound 319] | 94 | 70 |  |  | 
O=c1n(C/C=C/CN2CCN(c3ccccc3)CC2)c2ccccc2n1CCN1CCCCC1 [Compound 327] | 78 | 74 |  |  | 
O=c1n(C/C=C/CN2CCN(c3cccc(Cl)c3)CC2)c2ccccc2n1CCN1CCCCC1 [Compound 331] | 100 | 92 |  |  | 
O=c1n(C/C=C/CN2CCN(c3ncccn3)CC2)c2ccccc2n1CCN1CCCCC1 [Compound 332] | 78 | 85 |  |  | 
O=c1n(C/C=C/CN2CC=C(c3ccccc3)CC2)c2ccccc2n1CCN1CCCCC1 [Compound 336] | 90 | 81 |  |  | 
O=c1n(C/C=C/CN2CCN(c3ncccn3)CC2)c2ccccc2n1CCN1CCOCC1 [Compound 349] | 73 | 31 |  |  | 
O=c1n(C/C=C\CN2CCN(c3ccccc3)CC2)c2ccccc2n1CCO [Compound 361] | 86 | 46 |  |  | 
O=c1n(C/C=C\CN2CCN(c3ccccn3)CC2)c2ccccc2n1CCO [Compound 364] | 77 | 36 |  |  | 
O=c1n(C/C=C\CN2CCN(c3cccc(Cl)c3)CC2)c2ccccc2n1CCO [Compound 365] |  |  | 15 |  | 63
